Test results: PubChem BioAssay (NCI)
Values joined by “and” are separate entries in the source; they are usually repeats but may differ in a detail not shown here. Equal values may be shown once.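 Values below derive from 48-hour exposures of cells grown in 96-well plates, with endpoints linearly interpolated between the two concentrations bracketing the appropriate inhibition level. GI50 = concentration required for 50% inhibition of growth. At the TGI there is no net growth.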

Columns and labels:
Test in all cases: NCI tumour cell line growth inhibition, 48 h
M19-MEL melanoma = system: M19-MEL melanoma
XF 498 CNS = system: XF 498 CNS
LXFL 529 NSCLC = system: LXFL 529 NSCLC
RXF-631 renal = system: RXF-631 renal
DLD-1 colon = system: DLD-1 colon
T-47D breast = system: T-47D breast
HOP-18 NSCLC = system: HOP-18 NSCLC
DMS 114 small cell lung = system: DMS 114 small cell lung
MDA-N = system: MDA-N
P388 leukemia = system: P388 leukemia
SN12K1 renal = system: SN12K1 renal

Row | Compound | TGI (M19-MEL melanoma) [µM] | TGI (XF 498 CNS) [µM] | TGI (LXFL 529 NSCLC) [µM] | TGI (RXF-631 renal) [µM] | TGI (DLD-1 colon) [µM] | GI50 (T-47D breast) [µM] | TGI (T-47D breast) | TGI (HOP-18 NSCLC) [µM] | TGI (DMS 114 small cell lung) [µM] | TGI (MDA-N) [µM] | TGI (P388 leukemia) [µM] | TGI (SN12K1 renal) [µM] | GI50 (M19-MEL melanoma) [µM] | GI50 (XF 498 CNS) [µM] | GI50 (LXFL 529 NSCLC) [µM] | GI50 (RXF-631 renal) [µM] | GI50 (DLD-1 colon) [µM] | GI50 (HOP-18 NSCLC) [µM] | GI50 (DMS 114 small cell lung) [µM] | GI50 (MDA-N)
1 | CC(=O)Oc1ccc(C(c2ccc(OC(C)=O)cc2)c2ccccn2)cc1 | > 100 | > 86.1 | > 100 | > 100 | > 100 | 0.204 | 0.532 µM and 1.19 µM | > 100 | > 68.4 | > 100 |  |  |  |  |  |  |  |  |  | 
2 | Cc1cc2c(C)n(Cc3ccc(Cl)cc3Cl)nc2c(C(=O)O)c1C | > 100 | > 100 | > 100 | > 100 | > 100 |  |  | > 100 |  |  |  |  |  |  |  |  |  |  |  | 
3 | O=[N+]([O-])c1ccc(Cl)cc1C1SCc2nc3ccccc3n21 (centres undefined) | > 100 | > 100 | > 100 | > 100 | > 100 |  |  | > 100 | > 100 |  |  |  |  |  |  |  |  |  |  | 
4 | O=C(O)/C=C/C(=O)N1C/C(=C\c2ccccc2)C(=O)/C(=C/c2ccccc2)C1 | 9.41 | 15.8 | 3.72 |  | 12.2 |  |  | 26.3 | 8.78 |  | 41.6 | 3.57 |  |  |  |  |  |  |  | 
5 | [Cl][Cd][Cl] | 24.1 | 43.1 | 28.4 | > 88.9 |  | 9.63 | 19.5 µM | > 62.1 | > 55 | 21.4 |  |  | 11.2 | 23.4 | 13.3 | 38.8 | > 58.6 | > 42.3 | 25.8 | 4.61 µM and 8.24 µM
6 | COc1ccc2c(c1OC)C(=O)c1cnccc1C2=O | > 100 | > 100 | > 100 | > 100 | > 100 |  |  | > 100 | > 100 |  |  |  |  |  |  |  |  |  |  | 
7 | CN1CC(=O)N(C)c2nc[nH]c2C1=O | > 100 | > 100 | > 100 | > 100 | > 100 |  |  | > 100 | > 100 |  |  |  |  |  |  |  |  |  |  | 
8 | COC1=C2CC(C)CC(OC)C(O)C(C)/C=C(\C)C(OC(N)=O)C(OC)/C=C\C=C(/C)C(=O)NC(=C(/C=N/N3CCCCC3)C1=O)C2=O (centres undefined) | 19 | 19.9 | 24.1 | 35.1 | 23.4 |  |  | 27.2 |  |  |  |  |  |  |  |  |  |  |  | 
9 | O=C(O)CCSC(=O)Nc1ccc(N=Nc2ccccc2)cc1 |  | > 100 | > 100 | > 100 | > 100 |  |  | > 100 | > 100 |  |  |  |  |  |  |  |  |  |  | 
